We go through ten compounds from ChEMBL document CHEMBL3108664, “Macrocyclic drugs and clinical candidates: what can medicinal chemists learn from their properties?” (J Med Chem, 2014).

Data set [1] can be described thus: Apparent permeability across apical to basolateral side of human Caco2 cells at 5 uM after 120 mins by LC/MS/MS analysis. It counts as ADME, cell-based. Conditions: Caco-2. Background: Passage across Caco-2 layers is used to estimate intestinal permeability.
Data set [2] in a line: Half life in human at 25 mg, po administered through fat rich diet. Conditions: in vivo. The format is ADME, organism-based.
The nature of data set [3]: Oral bioavailability in cancer patient at 75 mg, qd administered 5 days for every 2 weeks. The format is ADME, organism-based. Conditions: human, in vivo.
The test system of another data set is Homo sapiens. The data set can be described thus: Oral bioavailability in human at 3 to 15 mg/day. The format is ADME, organism-based. To be noted: in vivo.
Data set [4] in a line: Oral bioavailability in mouse administered as bid. To be noted: in vivo. The format is ADME, organism-based.
A short description of data set [5]: Oral bioavailability in human. The format is ADME, organism-based. Conditions: in vivo.
Data set [6] is described as follows: Oral bioavailability in rat at 5 mg/kg. The format is ADME, organism-based. Conditions: in vivo.
Data set [7] in a line: Oral bioavailability in dog at 1 mg/kg. To be noted: in vivo. It counts as ADME, organism-based, Canis lupus familiaris.

By Papp A→B is commonly meant the apparent permeability from the apical to the basolateral side of a cell layer. `CN1C/C=C/CCOc2cccc(c2)-c2ccnc(n2)Nc2cccc(c2)C1` [ZOTIRACICLIB]: the Papp A→B at 2 h, 5 µM in data set [1] stood at 28 ×10⁻⁶ cm/s. Broadly, the half-life is the time needed for the level to fall by half in the phase considered. A lower half-life goes with rapid decline. In data set [2], `CO[C@H]1/C=C/O[C@@]2(C)Oc3c(C)c(O)c4c(=O)c(c5oc6cc(N7CCN(CC(C)C)CC7)cc(O)c6nc-5c4c3C2=O)NC(=O)/C(C)=C\C=C\[C@H](C)[C@H](O)[C@@H](C)[C@@H](O)[C@@H](C)[C@H](OC(C)=O)[C@@H]1C` [RIFALAZIL] gave a half-life of 100 h.

One may read the bioavailability as dose-corrected exposure relative to a reference, in per cent. As for `CO[C@H]1C[C@@H]2CC[C@@H](C)[C@@](O)(O2)C(=O)C(=O)N2CCCC[C@H]2C(=O)O[C@H]([C@H](C)C[C@@H]2CC[C@@H](OC(=O)C(C)(CO)CO)[C@H](OC)C2)CC(=O)[C@H](C)/C=C(\C)[C@@H](O)[C@@H](OC)C(=O)[C@H](C)C[C@H](C)/C=C/C=C/C=C/1C` [TEMSIROLIMUS], the bioavailability in data set [3] came out at 1.5%. Compound IVERMECTIN showed a F with Homo sapiens of 60%. The compound `COc1cc2ncnc3c2cc1OCCCCCN(C)Cc1ccc(Br)cc1N3` [JNJ-26483327] gave a bioavailability in data set [4] of 80%. In data set [5], `CO[C@H]1/C=C/O[C@@]2(C)Oc3c(C)c(O)c4c(O)c(c(/C=N/N5CCN(C6CCCC6)CC5)c(O)c4c3C2=O)NC(=O)/C(C)=C\C=C\[C@H](C)[C@H](O)[C@@H](C)[C@@H](O)[C@@H](C)[C@H](OC(C)=O)[C@@H]1C` [RIFAPENTINE] came in with a bioavailability of 70%. Still for that read-out and setting: with `CO[C@H]1/C=C/O[C@@]2(C)Oc3c(C)c(O)c4c(O)c(c(/C=N/N5CCN(C)CC5)c(O)c4c3C2=O)NC(=O)/C(C)=C\C=C\[C@H](C)[C@H](O)[C@@H](C)[C@@H](O)[C@@H](C)[C@H](OC(C)=O)[C@@H]1C` [RIFAMPIN] the figure was 50%.

`C=C[C@@H]1C[C@]1(NC(=O)[C@@H]1C[C@@H]2CN1C(=O)[C@H](C(C)(C)C)NC(=O)O[C@@H]1C[C@H]1CCCCCc1nc3ccc(OC)cc3nc1O2)C(=O)NS(=O)(=O)C1CC1` [GRAZOPREVIR ANHYDROUS]: the results for the bioavailability in data set [6] and in data set [7] were 1% and 13%, respectively. `CO[C@H]1C[C@@H]2CC[C@@H](C)[C@@](O)(O2)C(=O)C(=O)N2CCCC[C@H]2C(=O)O[C@H]([C@H](C)C[C@@H]2CC[C@@H](OCCO)[C@H](OC)C2)CC(=O)[C@H](C)/C=C(\C)[C@@H](O)[C@@H](OC)C(=O)[C@H](C)C[C@H](C)/C=C/C=C/C=C/1C` [EVEROLIMUS] displayed a bioavailability in data set [5] of 20%. On the same count and under the same terms, with `C=CC[C@@H]1/C=C(\C)C[C@H](C)C[C@H](OC)[C@H]2O[C@@](O)(C(=O)C(=O)N3CCCC[C@H]3C(=O)O[C@H](/C(C)=C/[C@@H]3CC[C@@H](O)[C@H](OC)C3)[C@H](C)[C@@H](O)CC1=O)[C@H](C)C[C@@H]2OC` [TACROLIMUS ANHYDROUS] the figure was 15%.
